Measurements as given in patent publication US6444617B1, “Fused-heterocycle dicarboxylic acid diamide derivatives or salts thereof, herbicide and usage thereof” (Nihon Nohyaku Co., Ltd., priority 1998, dated 2002).

Columns and labels:
Type in all cases: in vivo
[1] = system: barnyard grass (Echinochloa crus-galli Beauv.); assay: Test Example 1: herbicidal effect on paddy field weeds before emergence; settings: Dosage 5 kg/ha
In short: (§1)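 Seeds of both weeds, still ungerminated, in soil pots held under paddy conditions received a set dose of test solution as soil treatment. After twenty-one days, control relative to untreated pots was calculated and rated on a scoring scale.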

[2] = system: bulrush (Scirpus juncoides Roxb.); assay: as above; settings: Dosage 5 kg/ha
In short: as §1

[3] = system: barnyard grass (Echinochloa crus-galli Beauv.); assay: Test Example 2: herbicidal effect on paddy field weeds after emergence; settings: Dosage 5 kg/ha; one-leaved stage; 21 days after treatment
In short: (§2)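 Weeds in flooded paddy-soil pots were grown to the one-leaved stage, then the soil was treated with the compound solution at a set dosage.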

[4] = system: bulrush (Scirpus juncoides Roxb.); assay: as above; settings: Dosage 5 kg/ha; one-leaved stage; 21 days after treatment
In short: as §2

[5] = system: monochoria (Monochoria vaginalis Presl); assay: as above; settings: Dosage 5 kg/ha; one-leaved stage; 21 days after treatment
In short: as §2

[6] = system: barnyard grass (Echinochloa crus-galli Beauv.), Ec; assay: Test Example 3: herbicidal effect on upland weeds before emergence; settings: dosage 5 kg/ha
In short: (§3)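 Pre-emergence spray of liquid prep, compound at set concentration; read at 14 d post-treatment; weed-kill rate calculated, effect graded.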

[7] = system: bird's eye speedwell (Veronica persica Poir.), Vp; assay: as above; settings: dosage 5 kg/ha
In short: as §3

[8] = system: cleavers (Galium aparine L.), Ga; assay: as above; settings: dosage 5 kg/ha
In short: as §3

[9] = system: cocklebur (Xanthium strumarium L.), Xs; assay: as above; settings: dosage 5 kg/ha
In short: as §3

[10] = system: forxtail grass (Alopecurus aequalis var. amurensis Ohwi), Am; assay: as above; settings: foxtail grass, dosage 5 kg/ha
In short: as §3

[11] = system: velvetleaf (Abutilon theophtasti L.), At; assay: as above; settings: dosage 5 kg/ha
In short: as §3

[12] = system: soybean plant (So); assay: Test Example 3: phytotoxicity to upland crop plants, treatment before emergence; settings: dosage 5 kg/ha
In short: (§4)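 Crops treated before emergence with sprayed liquid preparation of compound (prescribed concentration). Day 14: phytotoxicity graded per criterion.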

[13] = system: wheat (Wh); assay: as above; settings: dosage 5 kg/ha
In short: as §4

[14] = system: barnyard grass (Echinochloa crus-galli Beauv.), Ec; assay: Test Example 4: herbicidal effect on upland weeds after emergence; settings: dosage 5 kg/ha; sprayed after emergence; judged 14 days after treatment
In short: (§5)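 Upland weeds and crop plants (soybean, wheat) are grown from seed in soil until they reach given leaf stages, then treated by spraying with the compound-containing agent; effects are judged two weeks later.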

[15] = system: bird's eye speedwell (Veronica persica Poir.), Vp; assay: as above; settings: dosage 5 kg/ha; sprayed after emergence; judged 14 days after treatment
In short: as §5

[16] = system: cleavers (Galium aparine L.), Ga; assay: as above; settings: dosage 5 kg/ha; sprayed after emergence; judged 14 days after treatment
In short: as §5

[17] = system: cocklebur (Xanthium strumarium L.), Xs; assay: as above; settings: dosage 5 kg/ha; sprayed after emergence; judged 14 days after treatment
In short: as §5

[18] = system: forxtail grass (Alopecurus aequalis var. amurensis Ohwi), Am; assay: as above; settings: dosage 5 kg/ha; sprayed after emergence; judged 14 days after treatment
In short: as §5

[19] = system: velvetleaf (Abutilon theophtasti L.), At; assay: as above; settings: dosage 5 kg/ha; sprayed after emergence; judged 14 days after treatment
In short: as §5

[20] = system: soybean plant; assay: Test Example 4: phytotoxicity to upland crop plants, treatment after emergence; settings: dosage 5 kg/ha, sprayed after emergence, judged 14 days after treatment
In short: (§6)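 Weeds, soybean and wheat were sown in soil-filled vats, covered with soil and grown to set leaf stages before a post-emergence spray of an agent containing the compound at a prescribed concentration. Weed-killing rate and crop phytotoxicity were assessed 14 days after treatment.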

[21] = system: wheat; assay: as above; settings: dosage 5 kg/ha, sprayed after emergence, judged 14 days after treatment
In short: as §6

Cc1c(Cl)cccc1NC(=O)c1cc2ccsc2nc1C(=O)NC1CCCC1 [compound 811]
Pre-emergence treatment Barnyard grass (herbicidal effect) [1]: 5 (Weed-killing rate is 100%.)
Pre-emergence treatment Bulrush (herbicidal effect) [2]: 5 (Weed-killing rate is 100%.)
Post-emergence treatment Barnyard grass (herbicidal effect) [3]: 5 (Weed-killing rate is 100%.)
Post-emergence treatment Bulrush (herbicidal effect) [4]: 5 (Weed-killing rate is 100%.)
Post-emergence treatment Monochoria (herbicidal effect) [5]: 5 (Weed-killing rate is 100%.)
Herbicidal effect Ec [6]: 5 (Weed-killing rate is 100%.)
Herbicidal effect Vp [7]: 5 (Weed-killing rate is 100%.)
Herbicidal effect Ga [8]: 5 (Weed-killing rate is 100%.)
Herbicidal effect Xs [9]: 5 (Weed-killing rate is 100%.)
Herbicidal effect Am [10]: 5 (Weed-killing rate is 100%.)
Herbicidal effect At [11]: 5 (Weed-killing rate is 100%.)
Phytotoxicity So [12]: 4 (Crop-killing rate is 90-99%.)
Phytotoxicity Wh [13]: 5 (Crop-killing rate is 100%.)
Herbicidal effect Ec [14]: 5 (Weed-killing rate is 100%.)
Herbicidal effect Vp [15]: 5 (Weed-killing rate is 100%.)
Herbicidal effect Ga [16]: 4 (Weed-killing rate is 90-99%.)
Herbicidal effect Xs [17]: 4 (Weed-killing rate is 90-99%.)
Herbicidal effect Am [18]: 5 (Weed-killing rate is 100%.)
Herbicidal effect At [19]: 5 (Weed-killing rate is 100%.)
Phytotoxicity So [20]: 4 (Crop-killing rate is 90-99%.)
Phytotoxicity Wh [21]: 5 (Crop-killing rate is 100%.)

CCCNC(=O)c1nc2scc(Br)c2cc1C(=O)Nc1c(CC)ccc(Cl)c1CC [compound 814]
Pre-emergence treatment Barnyard grass (herbicidal effect) [1]: 5 (Weed-killing rate is 100%.)
Pre-emergence treatment Bulrush (herbicidal effect) [2]: 5 (Weed-killing rate is 100%.)
Post-emergence treatment Barnyard grass (herbicidal effect) [3]: 5 (Weed-killing rate is 100%.)
Post-emergence treatment Bulrush (herbicidal effect) [4]: 5 (Weed-killing rate is 100%.)
Post-emergence treatment Monochoria (herbicidal effect) [5]: 5 (Weed-killing rate is 100%.)
Herbicidal effect Ec [6]: 5 (Weed-killing rate is 100%.)
Herbicidal effect Vp [7]: 5 (Weed-killing rate is 100%.)
Herbicidal effect Ga [8]: 4 (Weed-killing rate is 90-99%.)
Herbicidal effect Xs [9]: 4 (Weed-killing rate is 90-99%.)
Herbicidal effect Am [10]: 5 (Weed-killing rate is 100%.)
Herbicidal effect At [11]: 5 (Weed-killing rate is 100%.)
Phytotoxicity So [12]: 3 (Crop-killing rate is 70-89%.)
Phytotoxicity Wh [13]: 4 (Crop-killing rate is 90-99%.)
Herbicidal effect Ec [14]: 5 (Weed-killing rate is 100%.)
Herbicidal effect Vp [15]: 5 (Weed-killing rate is 100%.)
Herbicidal effect Ga [16]: 4 (Weed-killing rate is 90-99%.)
Herbicidal effect Xs [17]: 4 (Weed-killing rate is 90-99%.)
Herbicidal effect Am [18]: 5 (Weed-killing rate is 100%.)
Herbicidal effect At [19]: 5 (Weed-killing rate is 100%.)
Phytotoxicity So [20]: 3 (Crop-killing rate is 70-89%.)
Phytotoxicity Wh [21]: 4 (Crop-killing rate is 90-99%.)

CCCNC(=O)c1nc2c(ccn2C)cc1C(=O)Nc1c(CC)ccc(Cl)c1CC [compound 824]
Pre-emergence treatment Barnyard grass (herbicidal effect) [1]: 5 (Weed-killing rate is 100%.)
Pre-emergence treatment Bulrush (herbicidal effect) [2]: 5 (Weed-killing rate is 100%.)
Post-emergence treatment Barnyard grass (herbicidal effect) [3]: 5 (Weed-killing rate is 100%.)
Post-emergence treatment Bulrush (herbicidal effect) [4]: 5 (Weed-killing rate is 100%.)
Post-emergence treatment Monochoria (herbicidal effect) [5]: 5 (Weed-killing rate is 100%.)
Herbicidal effect Ec [6]: 5 (Weed-killing rate is 100%.)
Herbicidal effect Vp [7]: 5 (Weed-killing rate is 100%.)
Herbicidal effect Ga [8]: 5 (Weed-killing rate is 100%.)
Herbicidal effect Xs [9]: 5 (Weed-killing rate is 100%.)
Herbicidal effect Am [10]: 5 (Weed-killing rate is 100%.)
Herbicidal effect At [11]: 5 (Weed-killing rate is 100%.)
Phytotoxicity So [12]: 5 (Crop-killing rate is 100%.)
Phytotoxicity Wh [13]: 5 (Crop-killing rate is 100%.)
Herbicidal effect Ec [14]: 5 (Weed-killing rate is 100%.)
Herbicidal effect Vp [15]: 5 (Weed-killing rate is 100%.)
Herbicidal effect Ga [16]: 5 (Weed-killing rate is 100%.)
Herbicidal effect Xs [17]: 5 (Weed-killing rate is 100%.)
Herbicidal effect Am [18]: 5 (Weed-killing rate is 100%.)
Herbicidal effect At [19]: 5 (Weed-killing rate is 100%.)
Phytotoxicity So [20]: 4 (Crop-killing rate is 90-99%.)
Phytotoxicity Wh [21]: 5 (Crop-killing rate is 100%.)

CCCNC(=O)c1nc2cscc2cc1C(=O)Nc1c(CC)ccc(Cl)c1CC [compound 836]
Pre-emergence treatment Barnyard grass (herbicidal effect) [1]: 5 (Weed-killing rate is 100%.)
Pre-emergence treatment Bulrush (herbicidal effect) [2]: 5 (Weed-killing rate is 100%.)
Post-emergence treatment Barnyard grass (herbicidal effect) [3]: 5 (Weed-killing rate is 100%.)
Post-emergence treatment Bulrush (herbicidal effect) [4]: 5 (Weed-killing rate is 100%.)
Post-emergence treatment Monochoria (herbicidal effect) [5]: 5 (Weed-killing rate is 100%.)
Herbicidal effect Ec [6]: 5 (Weed-killing rate is 100%.)
Herbicidal effect Vp [7]: 5 (Weed-killing rate is 100%.)
Herbicidal effect Ga [8]: 5 (Weed-killing rate is 100%.)
Herbicidal effect Xs [9]: 5 (Weed-killing rate is 100%.)
Herbicidal effect Am [10]: 5 (Weed-killing rate is 100%.)
Herbicidal effect At [11]: 5 (Weed-killing rate is 100%.)
Phytotoxicity So [12]: 4 (Crop-killing rate is 90-99%.)
Phytotoxicity Wh [13]: 5 (Crop-killing rate is 100%.)
Herbicidal effect Ec [14]: 5 (Weed-killing rate is 100%.)
Herbicidal effect Vp [15]: 5 (Weed-killing rate is 100%.)
Herbicidal effect Ga [16]: 5 (Weed-killing rate is 100%.)
Herbicidal effect Xs [17]: 5 (Weed-killing rate is 100%.)
Herbicidal effect Am [18]: 5 (Weed-killing rate is 100%.)
Herbicidal effect At [19]: 5 (Weed-killing rate is 100%.)
Phytotoxicity So [20]: 4 (Crop-killing rate is 90-99%.)
Phytotoxicity Wh [21]: 5 (Crop-killing rate is 100%.)

CCCNC(=O)c1nc2ccoc2cc1C(=O)Nc1c(CC)ccc(Cl)c1CC [compound 847]
Pre-emergence treatment Barnyard grass (herbicidal effect) [1]: 5 (Weed-killing rate is 100%.)
Pre-emergence treatment Bulrush (herbicidal effect) [2]: 5 (Weed-killing rate is 100%.)
Post-emergence treatment Barnyard grass (herbicidal effect) [3]: 5 (Weed-killing rate is 100%.)
Post-emergence treatment Bulrush (herbicidal effect) [4]: 5 (Weed-killing rate is 100%.)
Post-emergence treatment Monochoria (herbicidal effect) [5]: 5 (Weed-killing rate is 100%.)
Herbicidal effect Ec [6]: 5 (Weed-killing rate is 100%.)
Herbicidal effect Vp [7]: 5 (Weed-killing rate is 100%.)
Herbicidal effect Ga [8]: 5 (Weed-killing rate is 100%.)
Herbicidal effect Xs [9]: 5 (Weed-killing rate is 100%.)
Herbicidal effect Am [10]: 5 (Weed-killing rate is 100%.)
Herbicidal effect At [11]: 5 (Weed-killing rate is 100%.)
Phytotoxicity So [12]: 4 (Crop-killing rate is 90-99%.)
Phytotoxicity Wh [13]: 5 (Crop-killing rate is 100%.)
Herbicidal effect Ec [14]: 5 (Weed-killing rate is 100%.)
Herbicidal effect Vp [15]: 5 (Weed-killing rate is 100%.)
Herbicidal effect Ga [16]: 5 (Weed-killing rate is 100%.)
Herbicidal effect Xs [17]: 5 (Weed-killing rate is 100%.)
Herbicidal effect Am [18]: 5 (Weed-killing rate is 100%.)
Herbicidal effect At [19]: 5 (Weed-killing rate is 100%.)
Phytotoxicity So [20]: 4 (Crop-killing rate is 90-99%.)
Phytotoxicity Wh [21]: 5 (Crop-killing rate is 100%.)
